# Test results published in patent publication US8173654B2, “Triazolopyridazine compounds” (Janssen Pharmaceutica N.V., priority 2005, dated 2012).
# Experiments:
# c-Met [1] = molecular target: T1, c-Met (Homo sapiens, UniProt P08581); test: Delfia autophosphorylation kinase assay on the c-Met; format: biochemical; set-up: The purified His6 tagged cytoplasmic domain of c-Met was diluted to a concentration of 500 ng/ml; host or cells: Sf9 insect cells (baculovirus, pFastBacHTa); settings: His6 tagged cytoplasmic domain of c-Met, 1 μM ATP; read-out: cMet Delfia autophos IC-50
# Description: A DELFIA time resolved fluorescence assay was developed for screening of compounds that decreases the autophosphorylation thus the kinase activity of c-Met. The DELFIA assay is non-radioactive. The autophosphorylation of the c-Met is measured by an anti-phosphotyrosine antibody coupled to an Europium tag.
# A major advantage of this format is that it allowed for the development of an autophosphorylation assay using Ni-chelate plates which bind the hexa-his tag on the recombinant Met kinase. The autophosphorylation assay allows one to use a known substrate, Met kinase itself, for the phosphorylation.
# The assay procedure for screening is as follows. The purified His6 tagged cytoplasmic domain of c-Met was diluted to a concentration of 500 ng/ml in enzyme dilution buffer (50 mM Tris-HCl, pH8.0, 0.1% BSA) and dispensed to assay plates at a volume of 50 μl per well. Black opaque HisGrab Nickel coated 96 well plates (Pierce, Rockford, Ill.) were selected for use. Next, 2.5 μl of compound in 40% DMSO was added to test wells, 2.5 μl of 40% DMSO only was added to the negative control wells. The autophosphorylation reaction was initiated upon the addition of 50 μl of reaction buffer, 50 mM Tris-HCl, pH 8.0, 10 mM MgCl2, 0.1 mM Na3VO4, 1 mM DTT, 1 μM ATP. Plates were incubated at room temperature for 1 hour followed by 2 washes with 200 μl/well of PBS. Europium conjugated anti-phosphotyrosine antibody, Eu-PY20 from Perkin Elmer was diluted to 50 ng/ml in Delfia AB buffer (Perkin Elmer, Boston, Mass.), added to the 96 well assay plates at a volume of 100 μl/well, and incubated at room temperature for 2 hours. Assay plates were then washed 4 times each with 200 μl/well of Delfia wash buffer (Perkin Elmer). After the final wash 150 μl of Delfia Enhancement solution (Perkin Elmer) was added to each well of the assay plate and incubated at room temperature for 1 hour. Plates were read on an LJL Analyst instrument (Molecular Devices; Sunnyvale, Calif.) with filter settings of 360 excitation, 620 emission, and 410 dichroic. IC50 values were calculated using Graphpad Prism software (Graphpad Software; San Diego, Calif.).
# Target sequence in this assay (P08581 956-1390 limits assumed): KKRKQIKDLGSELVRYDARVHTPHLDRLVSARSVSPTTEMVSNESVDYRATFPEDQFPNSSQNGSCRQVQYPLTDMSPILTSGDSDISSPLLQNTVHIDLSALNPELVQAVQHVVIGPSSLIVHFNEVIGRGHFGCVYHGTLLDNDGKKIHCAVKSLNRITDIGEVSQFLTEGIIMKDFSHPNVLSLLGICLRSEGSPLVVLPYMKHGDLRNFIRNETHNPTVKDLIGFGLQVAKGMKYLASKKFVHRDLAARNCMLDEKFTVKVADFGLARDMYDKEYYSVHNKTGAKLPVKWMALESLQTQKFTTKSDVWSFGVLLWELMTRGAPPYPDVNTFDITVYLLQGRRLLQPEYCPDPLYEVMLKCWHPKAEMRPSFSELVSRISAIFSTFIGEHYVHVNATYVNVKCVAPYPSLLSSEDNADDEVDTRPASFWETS
# c-Met [2] = molecular target: T1, c-Met; test: Cell based ELISA assay for HGF stimulated c-Met phosphorylation in S114 cells; set-up: expressed in transfected cells; host or cells: S114 (murine NIH 3T3 derived); settings: read-out: c-Met Cell ELISA IC-50
# Description: A cell based ELISA assay was developed to evaluate the ability of compounds to inhibit HGF stimulated c-Met phosphorylation in cells.
# S114 cells were seeded to a 96 well tissue culture treated dish at a concentration of 5×10^4 per well. After a 16-20 hour incubation, culture medium was removed and replaced with serum free medium supplemented with 0.5% BSA. Test compound was then added and incubated with the cells for 60 minutes, followed by the addition of 1 μl HGF at […] for 15 minutes. […] Following another 1 hour incubation at room temperature the plates were washed three times with Delfia wash buffer (Perkin Elmer). After the final wash, […] of Delfia enhancer solution (Perkin Elmer) was added and allowed to incubate for 60 minutes. Plates were read on an LJL Analyst instrument (Molecular Devices; Sunnyvale, Calif.) with filter settings of 360 excitation, 620 emission, and 410 dichroic. IC50 values were calculated using Graphpad Prism software (Graphpad Software; San Diego, Calif.).
# Target sequence in this assay (P08581 25-1390): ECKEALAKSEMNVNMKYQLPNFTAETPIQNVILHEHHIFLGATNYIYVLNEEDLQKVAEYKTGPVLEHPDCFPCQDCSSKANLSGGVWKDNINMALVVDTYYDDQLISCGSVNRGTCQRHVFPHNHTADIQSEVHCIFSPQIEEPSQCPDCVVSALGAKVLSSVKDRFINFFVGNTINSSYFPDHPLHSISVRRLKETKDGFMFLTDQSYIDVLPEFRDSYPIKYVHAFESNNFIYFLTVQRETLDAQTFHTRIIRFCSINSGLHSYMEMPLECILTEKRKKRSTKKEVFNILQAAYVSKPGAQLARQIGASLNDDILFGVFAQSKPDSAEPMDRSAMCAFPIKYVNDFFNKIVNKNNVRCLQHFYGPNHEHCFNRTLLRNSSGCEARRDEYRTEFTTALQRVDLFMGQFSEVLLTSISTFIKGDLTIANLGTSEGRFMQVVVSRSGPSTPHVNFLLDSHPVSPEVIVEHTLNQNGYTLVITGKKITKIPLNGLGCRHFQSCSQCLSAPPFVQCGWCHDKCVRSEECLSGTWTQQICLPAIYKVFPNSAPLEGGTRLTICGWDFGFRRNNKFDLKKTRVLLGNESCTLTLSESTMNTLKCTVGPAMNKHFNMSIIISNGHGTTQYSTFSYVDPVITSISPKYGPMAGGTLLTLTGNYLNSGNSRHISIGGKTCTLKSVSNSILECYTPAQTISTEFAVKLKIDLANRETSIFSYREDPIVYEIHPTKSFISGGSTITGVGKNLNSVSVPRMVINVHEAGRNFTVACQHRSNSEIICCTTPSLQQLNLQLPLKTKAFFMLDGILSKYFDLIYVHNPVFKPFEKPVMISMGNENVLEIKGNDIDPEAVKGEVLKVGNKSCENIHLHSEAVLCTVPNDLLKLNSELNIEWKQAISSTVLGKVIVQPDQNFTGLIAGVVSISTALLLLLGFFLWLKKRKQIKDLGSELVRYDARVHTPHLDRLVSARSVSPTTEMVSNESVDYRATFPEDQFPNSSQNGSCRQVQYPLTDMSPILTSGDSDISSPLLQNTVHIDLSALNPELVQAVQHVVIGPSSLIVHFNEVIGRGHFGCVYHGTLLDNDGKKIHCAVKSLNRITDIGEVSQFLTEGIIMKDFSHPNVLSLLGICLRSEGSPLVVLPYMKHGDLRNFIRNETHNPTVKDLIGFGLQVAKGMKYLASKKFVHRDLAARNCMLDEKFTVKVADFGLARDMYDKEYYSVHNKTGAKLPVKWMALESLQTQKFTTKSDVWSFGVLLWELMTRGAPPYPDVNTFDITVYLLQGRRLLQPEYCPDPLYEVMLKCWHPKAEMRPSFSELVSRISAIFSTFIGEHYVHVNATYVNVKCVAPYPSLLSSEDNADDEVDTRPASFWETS
SMILES,IC50 (c-Met [1]) [nM],IC50 (c-Met [2]) [nM]
"Oc1ccc(Cc2nnc3ccc(-c4ccn[nH]4)nn23)cc1 [Example 5, 4-[6-(2H-Pyrazol-3-yl)-[1,2,4]triazolo[4,3-b]pyridazin-3-ylmethyl]-phenol]",15,1930
"c1cnc2ccc(Cc3nnc4ccc(-c5ccncc5)nn34)cc2c1 [Example 6, 6-(6-Pyridin-4-yl-[1,2,4]triazolo[4,3-b]pyridazin-3-ylmethyl)-quinoline]",8,112
"c1cc2c(cc1Cc1nnc3ccc(-c4ccc(N5CCOCC5)nc4)nn13)CCO2 [Example 8, 3-(2,3-Dihydro-benzofuran-5-ylmethyl)-6-(6-morpholin-4-yl-pyridin-3-yl)-[1,2,4]triazolo[4,3-b]pyridazine]",243,
"c1cncc(-c2ccc3nnc(Cc4ccc5ncnn5c4)n3n2)c1 [Example 12, 6-Pyridin-3-yl-3-[1,2,4]triazolo[1,5-a]pyridin-6-ylmethyl-[1,2,4]triazolo[4,3-b]pyridazine]",56,
"Clc1cc(Cc2nnc3ccc(-c4cccnc4)nn23)ccn1 [Example 14, 3-(2-Chloro-pyridin-4-ylmethyl)-6-pyridin-3-yl-[1,2,4]triazolo[4,3-b]pyridazine]",> 10000,
"c1ccc(-c2ccc3nnc(Cc4ccc5c(c4)CCO5)n3n2)nc1 [Example 19, 3-(2,3-Dihydro-benzofuran-5-ylmethyl)-6-pyridin-2-yl-[1,2,4]triazolo[4,3-b]pyridazine]",172,
"Nc1nc2ccc(Cc3nnc4ccc(-c5cccs5)nn34)cc2o1 [Example 21, 6-(6-Thiophen-2-yl-[1,2,4]triazolo[4,3-b]pyridazin-3-ylmethyl)-benzooxazol-2-ylamine]",23,
"c1ccc(Cc2nnc3ccc(-c4cccs4)nn23)cc1 [Example 24, 3-Benzyl-6-thiophen-2-yl-[1,2,4]triazolo[4,3-b]pyridazine]",1780,
"Nc1ccc(Cc2nnc3ccc(-c4cccs4)nn23)cc1 [Example 28, 4(6-Thiophen-2-yl-[1,2,4]triazolo[4,3-b]pyridazin-3-ylmethyl)-phenylamine]",1900,
"O=c1ccc(Cc2nnc3ccc(-c4cccs4)nn23)c[nH]1 [Example 32, 5-(6-Thiophen-2-yl-[1,2,4]triazolo[4,3-b]pyridazin-3-ylmethyl)-1H-pyridin-2-one]",305,
"[O-][n+]1ccc(Cc2nnc3ccc(-c4cccs4)nn23)cc1 [Example 34, 3-(1-Oxy-pyridin-4-ylmethyl)-6-thiophen-2-yl-[1,2,4]triazolo[4,3-b]pyridazine]",1190,
"c1csc(-c2ccc3nnc(Cc4ccc5sccc5c4)n3n2)c1 [Example 36, 3-Benzo[b]thiophen-5-ylmethyl-6-thiophen-2-yl-[1,2,4]triazolo[4,3-b]pyridazine]",2700,
"COc1cnccc1-c1ccc2nnc(Cc3ccc4c(c3)CCO4)n2n1 [Example 41, 3-(2,3-Dihydro-benzofuran-5-ylmethyl)-6-(3-methoxy-pyridin-4-yl)-[1,2,4]triazolo[4,3-b]pyridazine]",56,
"Oc1ccc(Cc2nnc3ccc(-n4cccn4)nn23)cc1 [Example 46, 4-(6-Pyrazol-1-yl-[1,2,4]triazolo[4,3-b]pyridazin-3-ylmethyl)-phenol]",227,
"FC(F)(c1ccc2ncccc2c1)c1nnc2ccc(-c3cccs3)nn12 [Example 57, 6-[Difluoro-(6-thiophen-2-yl-[1,2,4]triazolo[4,3-b]pyridazin-3-yl)-methyl]-quinoline]",0.3,
"Clc1ccc2cc(Cc3nnc4ccc(-c5cccnc5)nn34)ccc2n1 [Example 67, 2-Chloro-6-(6-pyridin-3-yl-[1,2,4]triazolo[4,3-b]pyridazin-3-ylmethyl)-quinoline]",900,

# Second part, the compound after the results:
IC50 (c-Met [1]) [nM],IC50 (c-Met [2]) [nM],SMILES
16,1030,"Oc1ccc(Cc2nnc3ccc(-c4cn[nH]c4)nn23)cc1 [Example 3, 4-[6-(1H-Pyrazol-4-yl)-[1,2,4]triazolo[4,3-b]pyridazin-3-ylmethyl]-phenol]"
111,2150,"c1cc(-c2ccc3nnc(Cc4ccc5c(c4)CCO5)n3n2)ccn1 [Example 7, 3-(2,3-Dihydro-benzofuran-5-ylmethyl)-6-pyridin-4-yl-[1,2,4]triazolo[4,3-b]pyridazine]"
217,,"O=C(c1cncc(-c2ccc3nnc(Cc4ccc5ncccc5c4)n3n2)c1)N1CCOCC1 [Example 10, Morpholin-4-yl-[5-(3-quinolin-6-ylmethyl-[1,2,4]triazolo[4,3-b]pyridazin-6-yl)-pyridin-3-yl]-methanone]"
413,,"Fc1ccc(Cc2nnc3ccc(-c4cccs4)nn23)cc1 [Example 26, 3-(4-Fluoro-benzyl)-6-thiophen-2-yl-[1,2,4]triazolo[4,3-b]pyridazine]"
8210,,"O=[N+]([O-])c1ccc(Cc2nnc3ccc(-c4cccs4)nn23)cc1 [Example 27, 3-(4-Nitro-benzyl)-6-thiophen-2-yl-[1,2,4]triazolo[4,3-b]pyridazine]"
86,,"CC(=O)Nc1ccc(Cc2nnc3ccc(-c4cccs4)nn23)cc1 [Example 29, N-[4(6-Thiophen-2-yl-[1,2,4]triazolo[4,3-b]pyridazin-3-ylmethyl)-phenyl]-acetamide]"
570,,"CCNC(=O)Nc1ccc(Cc2nnc3ccc(-c4cccs4)nn23)cc1 [Example 30, 1-Ethyl-3-[4-(6-thiophen-2-yl-[1,2,4]triazolo[4,3-b]pyridazin-3-ylmethyl)-phenyl]-urea]"
1080,,"c1cc2c(cc1Cc1nnc3ccc(-c4ccc(CN5CCOCC5)o4)nn13)CCO2 [Example 40, 3-(2,3-Dihydro-benzofuran-5-ylmethyl)-6-(5-morpholin-4-ylmethyl-furan-2-yl)-[1,2,4]triazolo[4,3-b]pyridazine]"
70,,"Oc1ccc(Cc2nnc3ccc(-n4ccnc4)nn23)cc1 [Example 45, 4-(6-Imidazol-1-yl-[1,2,4]triazolo[4,3-b]pyridazin-3-ylmethyl)-phenol]"
,6,"O=C(c1ccc(-c2ccc3nnc(Cc4ccc5ncccc5c4)n3n2)s1)N1CCS(=O)(=O)CC1 [Example 54, (1,1-Dioxo-1λ6thiomorpholin-4-yl)-[5-(3-quinolin-6-ylmethyl-[1,2,4]triazolo[4,3-b]pyridazin-6-yl)-thiophen-2-yl]-methanone]"
600,,"Cn1cc(-c2ccc3nnc(Cc4ccc5c(ccc[n+]5[O-])c4)n3n2)cn1 [Example 63, 6-[6-(1-Methyl-1H-pyrazol-4-yl)-[1,2,4]triazolo[4,3-b]pyridazin-3-ylmethyl]-quinoline 1-oxide]"
320,,"c1cnc2ccc(Cc3nnc4ccc(-c5ccc6nn[nH]c6c5)nn34)cc2c1 [Example 78, 6-[6-(3H-Benzotriazol-5-yl)-[1,2,4]triazolo[4,3-b]pyridazin-3-ylmethyl]-quinoline]"
17,,"Cc1nc2ccc(Cc3nnc4ccc(-c5cnn(C)c5)nn34)cc2s1 [Example 82, 3-(2-Methyl-benzothiazol-6-ylmethyl)-6-(1-methyl-1H-pyrazol-4-yl)-[1,2,4]triazolo[4,3-b]pyridazine]"
14,,"N#Cc1cncc(-c2ccc3nnc(Cc4ccc5ncccc5c4)n3n2)c1 [Example 83, 5-(3-Quinolin-6-ylmethyl-[1,2,4]triazolo[4,3-b]pyridazin-6-yl)-nicotinonitrile]"
,0.9,"c1cnc2ccc(Cc3nnc4ccc(-c5ccc6[nH]ccc6c5)nn34)cc2c1 [Example 84, 6-[6-(1H-Indol-5-yl)-[1,2,4]triazolo[4,3-b]pyridazin-3-ylmethyl]-quinoline]"
1050,,"c1cncc(-c2ccc3nnc(Cc4cccc5ncccc45)n3n2)c1 [Example 91, 5-(6-Pyridin-3-yl-[1,2,4]triazolo[4,3-b]pyridazin-3-ylmethyl)-quinoline]"
